These results are taken from paper PMC8466420, “Inflammatory and Cytotoxic Activities of Abietane Terpenoids from Nepeta bracteata Benth” (Molecules, 2021).

A value given as a limit tells only on which side of the number the result lay.

Common to all, as to type: cell-based
Data set [1] relates to nitric oxide (NO) production in lipopolysaccharide (LPS)-stimulated RAW 264.7 cells. Nature of the data set: Anti-inflammation assay: inhibition of NO production in LPS-stimulated RAW 264.7 macrophages. Particulars: means ± SD of triplicate experiments. As for the experimental part:
The anti-inflammatory activity of the isolated compounds was evaluated in lipopolysaccharide-stimulated RAW 264.7 macrophages using the […]. The RAW 264.7 macrophages were seeded in 96-well plates at a density of 1 × 10^4 cells per well for 24 h, followed by treatment with different extracts of identical purity for another 24 h. The compounds were dissolved in dimethyl sulfoxide (DMSO) and diluted appropriately just before cell treatments. Cells were incubated with the extract at indicated concentrations, with DMSO not exceeding 0.1% in all experiments. The cells were cultured in DMEM with 10% FBS and antibiotics (100 U/mL penicillin and 100 µg/mL streptomycin) at 37 °C with 5% CO2. […].

In the next data set the test system is RAW 264.7 macrophages. Put plainly: RAW 264.7 macrophage viability test (MTT). Particulars: compounds at 50 μM; for viability at 50 µM: Mus musculus, RAW264.7, 24 h, read-out: Cell Survival Rate (%) RAW 264.7 Macrophages. As for the experimental part:
The MTT colorimetric method was used to detect the effect of compounds 1–10 on the viability of RAW 264.7 macrophages. The RAW 264. 7 macrophages in the logarithmic growth phase were digested with trypsin to prepare a single-cell suspension, which was seeded in a 96-well plate at a density of 1 × 10^4 cells per well and cultured in a 5% CO2 incubator for 24 h at 37 °C, before discarding the supernatant. The blank control group was cultured with 10% FBS-containing DMEM, and the drug group was treated with aqueous solutions of compounds 1–10, with six replicate wells for each concentration. Incubation was continued in 5% CO2 at 37 °C. After 24 h of incubation, 10 μL of 5 mg/mL MTT was added to each well. The culture solution was removed after culturing for 4 h. Then, 100 μL of DMSO was added to each well, before shaking for 10 min to achieve complete dissolution. The optical density (OD) was measured at 492 nm using a microplate reader to calculate cell viability.

Data set [2] in a line: Cytotoxicity test against HCT-8 cells (MTT). Particulars: human, means ± SD (n = 3), read-out: IC50 (μM) HCT-8 (cytotoxic activity). On the procedure:
(§1) The cytotoxic activities of compounds 1–10 against HCT-8 cells were tested using the MTT colorimetric method. HCT-8 cells were cultivated on DMEM medium at 37 °C and 5% CO2. After diluting the DMEM medium, cells were seeded into 96-well sterile microplates (6 × 10^4 cells/well) and cultured with a series of various concentrations of tested compounds or adriamycin (positive control) for 24 h at 37 °C. After incubation, all compounds were tested at five concentrations (10−100 μM) for 1 h. Following this, the supernatant was removed, and all components were dissolved in 100% DMSO, at such an amount that there was a final DMSO concentration of 0.1% added to each well. The absorbance was measured using a microplate reader at a wavelength of 570 nm. […] The cell growth assay was repeated three times, and the IC50 values were calculated using Microsoft Excel software.

A further data set relates to HCT-8 cells. Nature of the data set: Cytotoxicity test against HCT-8 cells (MTT). Particulars: 24 h, means ± SD (n = 3), read-out: IC50 (μM) HCT-8 (cytotoxic activity). On the procedure:
as §1

[3] abbreviates: Mus musculus, RAW264.7, 24 h treatment.

`CC(=O)O[C@H]1CCC(C)(C)[C@@H]2CCc3cc(C(C)C)ccc3[C@@]12CO` [Compound 1, nepetabrate A] displayed a half-maximal inhibitory concentration (IC50) in data set [1] (setting [3]) of 38.2 ± 1.15 µM. Further, the viability at 50 µM in the data set on RAW 264.7 macrophages turned out to be 97.93 ± 0.26%. Besides, the 50% inhibitory concentration (IC50) at 24 h in data set [2] is greater than 50 µM.

The compound `CC1CC(=O)OCCNC1=O` (centres unmarked) [Compound 5, 6-methyl-1,4-oxazocane-5,8-dione] registered an IC50 in data set [1] (setting [3]) of 18 ± 1.13 µM. Besides, the viability at 50 µM with RAW 264.7 macrophages is 99.21 ± 0.15%. Besides, the half-inhibitory concentration (IC50) at 24 h in data set [2] was greater than 50 µM.

Consider `CC(C)(O)c1ccc2c(c1)CC[C@H]1[C@@](C)(C(=O)O)CCC[C@]21C` [Compound 6, angustanoic acid F], for which, in data set [1] (setting [3]), the IC50 came to 36.2 ± 1.21 µM. The viability at 50 µM in the data set on RAW 264.7 macrophages worked out at 99.89 ± 0.13%. The half-inhibitory concentration (IC50) at 24 h in data set [2] is greater than 50 µM.

In data set [1] (setting [3]), `CC(C)c1ccc2c(c1)[C@@H](O)C[C@H]1[C@@](C)(C(=O)O)CCC[C@]21C` [Compound 7, 7a-hydroxycallitrisic acid] returned a half-inhibitory concentration (IC50) of 37.1 ± 0.81 µM. For the same compound, the viability at 50 µM in the data set with RAW 264.7 macrophages stood at 98.75 ± 0.45%. In data set [2], the concentration for half-maximal inhibition (IC50) at 24 h is greater than 50 µM.

For `CC(C)c1ccc2c(c1)CC[C@@H]1[C@](C)(CCC[C@]1(C)C(=O)O)O2` [Compound 10, jiadifenoic acid K], the IC50 in data set [1] (setting [3]) came to 46.3 ± 1.02 µM. Further, the viability at 50 µM with RAW 264.7 macrophages is 98.75 ± 0.2%. Further, in data set [2], the concentration for half-maximal inhibition (IC50) at 24 h is greater than 50 µM.

Regarding “1-phenanthrenecarboxylic acid [Compound 8]”, the values for the IC50 (in data set [1] (24 h treatment); in the data set with HCT-8 cells) were 37.5 ± 0.92 µM and greater than 50 µM, respectively. The “Cell Survival Rate (%) RAW 264.7 Macrophages” value in the data set with RAW 264.7 macrophages (24 h) turned out to be 99.12 ± 0.28%.

Turning to `CC(=O)c1ccc2c(c1)CC[C@H]1[C@@](C)(C(=O)O)CCC[C@]21C` [Compound 9, angustanoic acid G], in data set [1] (setting [3]), the 50% inhibitory concentration (IC50) worked out at 42.3 ± 0.56 µM. In addition, in the data set with RAW 264.7 macrophages, the viability at 50 µM came to 98.26 ± 0.18%. The IC50 at 24 h in data set [2] was greater than 50 µM.

For the compound `COc1cccc2c1C(=O)c1c(O)c3c(c(O)c1C2=O)C[C@@](O)(C(=O)CO)C[C@@H]3O[C@H]1C[C@H](N)[C@H](O)[C@H](C)O1` [Adriamycin, reference compound], the IC50 at 24 h in data set [2] stood at 1.78 ± 0.14 µM.

In data set [1] (setting [3]), `CC(C)c1ccc2c(c1)[C@@H](O)C[C@H]1[C@@](C)(C=O)CCC[C@]21C` [Compound 2, nepetabrate B] displayed a half-inhibitory concentration (IC50) of 19.2 ± 1.25 µM. In addition, in the data set with RAW 264.7 macrophages, the viability at 50 µM was 88.26 ± 0.32%. In addition, the IC50 at 24 h in data set [2] was 36.3 ± 1.1 µM.

As for `C=C1[C@@H]2C[C@H](O)c3cc(C(C)C)ccc3[C@@]2(C)CC[C@@]1(C)O` [Compound 4, nepetabrate D], the concentration for half-maximal inhibition (IC50) in data set [1] (setting [3]) is 18.8 ± 0.75 µM. Also, in the data set with RAW 264.7 macrophages, the viability at 50 µM was determined as 92.21 ± 0.19%. For the same compound, the IC50 at 24 h in data set [2] was 41.4 ± 0.91 µM.

Consider `CC1=C(CO)[C@@H]2C[C@H](O)c3cc(C(C)C)ccc3[C@@]2(C)CC1` [Compound 3, nepetabrate C], for which 22.3 ± 1.26 µM corresponded to half-maximal inhibition in data set [1] (setting [3]) (IC50). Besides, in the data set with RAW 264.7 macrophages, the viability at 50 µM was found to be 99.84 ± 0.21%. Moreover, the half-inhibitory concentration (IC50) at 24 h in data set [2] is greater than 50 µM.

As to `CC(=O)Oc1ccccc1C(=O)O` [Aspirin, reference compound], the half-inhibitory concentration (IC50) in data set [1] (setting [3]) came out at 15.9 ± 0.38 µM.
